From the supplement of paper PMC11451515

Legend:
Assay in all cases: AUC of viability dose-response curve (% viability x log10 dose units); higher = less sensitive
Settings in all cases: 48 h
NOMO1 = tested on: NOMO1
Outline: (§1)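 Area under the curve was integrated by trapezoidal rule from a log-logistic fit of normalised viability, with curves exceeding full viability scaled and quality-control failures removed. The fit had four parameters over log10 doses. Viability came from CellTiter-Glo One luminescence, normalised per plate to DMSO and cell-free wells, after leukemia cells adapted to each medium (500 or 1000 cells/well, 1536-well plates) were exposed to library compounds in DMSO for 48 h at 37°C. The 11 threefold doses ran from 47 μM to 0.79 nM.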

P12-Ichikawa = tested on: P12-Ichikawa
Outline: as §1

SEM cells = tested on: SEM cells
Outline: as §1

[1] = RPMI 5 mM glucose + 10% dialyzed FBS

Compound	AUC of viability dose-response curve (NOMO1; HPLM + 10% dialyzed FBS)	AUC of viability dose-response curve (NOMO1; RPMI 5 mM glucose + 10% FBS)	AUC of viability dose-response curve (NOMO1; [1])	AUC of viability dose-response curve (P12-Ichikawa; HPLM + 10% dialyzed FBS)	AUC of viability dose-response curve (P12-Ichikawa; RPMI 5 mM glucose + 10% FBS)	AUC of viability dose-response curve (P12-Ichikawa; [1])	AUC of viability dose-response curve (SEM cells; HPLM + 10% dialyzed FBS)	AUC of viability dose-response curve (SEM cells; RPMI 5 mM glucose + 10% FBS)	AUC of viability dose-response curve (SEM cells; [1])
CCCCCCCCCCCCCCCCCCOP(=O)([O-])OC1CC[N+](C)(C)CC1	469	470	467	470	462	465	455	468	442
O=C(CCc1ccc(O)cc1)c1c(O)cc(O)cc1O[C@@H]1O[C@H](CO)[C@@H](O)[C@H](O)[C@H]1O				428	405	408	454	426	412
COc1ccc2c(c1OC)CN1CCc3cc4c(cc3C1C2)OCO4 (stereo not given)	322	330	331	356	316	311	288	263	271
C=CCn1c(=O)c2cnc(Nc3ccc(N4CCN(C)CC4)cc3)nc2n1-c1cccc(C(C)(C)O)n1	310	338	316	336	362	354	299	301	270
C[S+]([O-])c1ccc(-c2nc(-c3ccc(F)cc3)c(-c3ccncc3)[nH]2)cc1 (stereo not given)	358	357	334	380	359	367	324	314	324
CO[C@H]1C[C@@H]2CC[C@@H](C)[C@@](O)(O2)C(=O)C(=O)N2CCCC[C@H]2C(=O)O[C@H]([C@H](C)C[C@@H]2CC[C@@H](OCCO)[C@H](OC)C2)CC(=O)[C@H](C)/C=C(/C)[C@@H](O)[C@@H](OC)C(=O)[C@H](C)C[C@H](C)\C=C/C=C\C=C/1C	393	421	370	420	329	362	240	234	233
O=C1CCc2ccc(OCCCCN3CCN(c4cccc(Cl)c4Cl)CC3)cc2N1	449	433	438	473	471	449			
CC(C)[C@H](CO)Nc1nc(Nc2cccc(Cl)c2)c2ncn(C(C)C)c2n1	304	342	351	385	404	387	316	255	284
Cc1cc(O)c2c(c1)C(=O)c1cc(O)cc(O)c1C2=O	462	437	454	467	468	449	457	470	469
O=C1NC(O)CCN1[C@@H]1O[C@H](CO)[C@@H](O)[C@H]1O (stereo not given in full)	435	459	457	456	437	467	463	443	465
NC\1=N\C(=O)N(\C=C1)[C@H]\2[C@H](O)[C@H](O)C(=C2F)\CO	369	378	369	361	394	389	376	421	353
O=c1[nH]cnc2c1ncn2[C@H]1CC[C@@H](CO)O1	447	420	431	468	463	444	460	409	409
CN(C)C[C@@H]1CC[N]2C=C(C3=C2C=CC=C3)C/4=C(/C(=O)NC4=O)C5=C[N](CCO1)C6=C5C=CC=C6	443	423	425	458	453	459	391	412	393
O=C(NNC(=O)c1ccc(CN[S+](=O)([O-])c2ccc(F)c(Cl)c2)cc1)c1ccccc1	468	437	438	460	466	470	463	449	423
CC(C)(C)c1cc(C(=O)O)c(NC(=O)Nc2ccc3[nH]ncc3c2)s1	427	418	422	433	426	438	442	447	440
CCNC(=O)[C@H]1O[C@@H](n2cnc3c(N)nc(NCCc4ccc(CCC(=O)O)cc4)nc32)[C@H](O)[C@@H]1O	458	437	442	465	456	462	470	421	469
Cc1cc(Cl)ccc1OCCCC(=O)NO	438	428	444	400	380	336	411	418	403
CC(C)NCC(O)c1ccc(NS(C)(=O)=O)cc1 (stereo not given)	460	447	461	464	472	457	466	447	468
OC1=CC=C(C=C1)\C2=C\C(=O)C3=C(O2)C=C(O)C=C3O	451	457	448	467	456	453	462	430	443
COC1(C[S+]([O-])c2ccccc2)CCN(CCc2c[nH]c3ccc(F)cc23)CC1 (stereo not given)	418	469	460	455	408	451	445	471	456
N\C1=N\C2=C(N=C[N]2COC(CO)CO)C(=O)N1	445	449	448				444	387	449
COc1ccc(Nc2cc(-c3cnc(N)nc3)nc(N3CCOCC3)n2)cn1	373	375	361	433	387	399	398	418	389
CN(C)CCCNC(=O)c1ccc(-c2cc(O)c3ncccc3c2)cc1	458	434	463	467	459	450	443	442	445

Compound	AUC of viability dose-response curve (NOMO1; HPLM + 10% dialyzed FBS)	AUC of viability dose-response curve (NOMO1; RPMI 5 mM glucose + 10% FBS)	AUC of viability dose-response curve (NOMO1; [1])	AUC of viability dose-response curve (P12-Ichikawa; HPLM + 10% dialyzed FBS)	AUC of viability dose-response curve (P12-Ichikawa; RPMI 5 mM glucose + 10% FBS)	AUC of viability dose-response curve (P12-Ichikawa; [1])	AUC of viability dose-response curve (SEM cells; HPLM + 10% dialyzed FBS)	AUC of viability dose-response curve (SEM cells; RPMI 5 mM glucose + 10% FBS)	AUC of viability dose-response curve (SEM cells; [1])
COC(=O)[C@@H](N)CCCNC(=N)N[N+](=O)[O-]	467	427	461	452	462	452	426	444	432
NCC(=O)Nc1ccc(-n2nc(C(F)(F)F)cc2-c2ccc3c(ccc4ccccc43)c2)cc1	458	462	447				460	457	424
COC1=CC=C(C=C1)C2CC(=N/N2C3=CC=C(C=C3)[S+](N)([O-])=O)\C4=CC=CC=C4 (stereo not given)	330	355	337	387	354	340	323	293	282
CCN(CC)CCN1C(=O)\C(=N/C2=CC=CC=C12)CC3=CC=C(OC)C=C3	472	474	468	470	465	460			
CNCC(O)C(O)C(O)C(O)CO.O=C(O)c1ccc(-c2cc3cccnc3c(-c3ccc4nonc4c3)n2)cc1	467	464	469	473	470	468	472	472	459
CC(=O)O[C@@]12CO[C@@H]1C[C@H](O)[C@]3(C)[C@@H]2[C@H](OC(=O)C4=CC=CC=C4)[C@]5(O)C[C@H](OC(=O)C(O)[C@@H](NC(=O)OC(C)(C)C)C6=CC=CC=C6)C(=C(/[C@@H](O)C3=O)C5(C)C)/C (stereo not given in full)	147	112	118	126	125	174	112	78.5	86.9
Cc1ncc([N+](=O)[O-])n1CCO	467	462	461	477	472	469	467	477	449
C[C@@H]1CC[C@@]2(OC1)OC1CC3C4CC=C5CC(O)CCC5(C)C4CCC3(C)C1[C@@H]2C (stereo not given in full)	428	402	407	419	453	444	444	394	415
N#CC(=C(/N)Sc1ccccc1N)/C(C#N)=C(\N)Sc1ccccc1N	436	473	444	474	469	472	452	444	410
Cc1cn(CCN2CCN(c3ccccc3-c3cc(C#N)cc(C(=O)NCCCN4CCCC4)c3)CC2)c2ccccc12	406	424	421	402	409	409	407	401	424
COC1=CC2=C(C=C1OC)[C@H]3[C@@H](CO2)OC4=C(C=CC5=C4\C=C/C(C)(C)O5)C3=O	402	404	406	399	327	341	409	357	326
CC[C@@]1(O)C[C@H](O[C@H]2C[C@H](N(C)C)[C@H](O[C@H]3C[C@H](O)[C@H](O[C@H]4CCC(=O)[C@H](C)O4)[C@H](C)O3)[C@H](C)O2)c2c(cc3c(c2O)C(=O)c2c(O)cccc2C3=O)[C@H]1C(=O)OC	426	430	410	463	417	425	217	225	200
COc1cc(OC)c(NC(=O)Nc2cc(C)on2)cc1Cl	464	442	417	463	465	463	467	397	453
CN(C)c1ccc(Nc2nc(N)n(C(=O)c3c(F)cccc3F)n2)cc1	452	465	459				396	361	370
C[N+](C)([O-])CCNc1ccc(NCC[N+](C)(C)[O-])c2c1C(=O)c1c(O)ccc(O)c1C2=O	383	365	391	354	302	305	298	272	281
O=C1N\2CCC3=C([NH]C4=C3C=CC=C4)C2=N/C5=CC=CC=C15	465	461	466	465	457	454	461	456	451
CCN(C)C(=O)Oc1cccc([C@H](C)N(C)C)c1	451	468	474	452	458	465	463	432	452
CN[S+](=O)([O-])CCc1ccc2[nH]cc(C3CCN(C)CC3)c2c1	454	435	450	460	460	466	428	452	432
OC(COC1=C2C(=O)\C=C(/OC2=CC=C1)C([O-])=O)COC3=C4C(=O)\C=C(/OC4=CC=C3)C([O-])=O	435	368	394						
CC1(C)CC(O)CC(C)(C)N1[O]	452	472	472	464	459	459			
Cc1ccc(-c2ncn(-c3ccc(Nc4nccc(-c5cccc(N6CCOCC6)c5)n4)cc3)n2)cn1				259	244	235	229	226	217
COC[C@H]1OC(=O)C2=COC3=C2[C@@]1(C)\C4=C(\[C@@H]5CC[C@H](O)[C@@]5(C)C[C@H]4OC(C)=O)C3=O	440	466	458						
COc1cc(N[S+](=O)([O-])c2ccc(N)cc2)nc(OC)n1	431	476	458	462	470	466			
